Structures can show the parent of a compound that is named as a salt.
How the values were obtained:
HCLE stratified cultures [1] = assay: Vital dye staining assay (fluorescein, rose bengal), oxidative stress, stratified and differentiated cells; format: cell-based, human; details: 10 mM tBHP; Genistein 200 uM, Chlorpromazine 8 ug/mL, Dynasore 40 uM, Dyngo-4a 15 uM; FIG. 3B-D
From the text: (§1) The purpose of this study was to investigate mechanisms of dye uptake relevant to ocular surface disease. We hypothesized that stimulation of plasma membrane remodeling by sublethal cell damage would result in vital dye uptake into endocytic repair vesicles. Oxidative stress has been implicated in ocular surface damage due to dry eye and many other ocular surface disorders, thus we chose this as the damaging stress for our study. An aqueous stock solution of tert-butyl hydroperoxide (tBHP) was diluted into the medium of human cell cultures or mouse eye organ cultures as we have previously described. The final dilution of tBHP used for cell culture experiments was 3 mM or 10 mM (as indicated in the individual experimental details). A final dilution of 10 mM tBHP was used for mouse eye organ culture experiments. These optimal concentrations were determined empirically in dose-response assessments as causing a high level of vital dye staining without killing cells. As soon as tBHP was added, all cultures were returned to the cell culture incubator under 5% CO2 atmosphere. Stressed cultures were compared to unstressed controls incubated similarly for the same time period. Cells were incubated for 2 to 3 hours and mouse eyes were incubated for 2.5 hours before endpoint determination.
(§2) To learn whether endocytosis was involved in dye uptake, the process was blocked by treating cells or eyes with endocytic inhibitors. Chlorpromazine hydrochloride (MP Biologicals, Solon, Ohio), an inhibitor of clathrin-mediated endocytosis, was used at a final dilution of 8 ug/mL. Genistein (Sigma-Aldrich, St Louis, Mo.), an inhibitor of caveolin-mediated endocytosis, was used at 200 uM final dilution. […] All inhibitors were dissolved in DMSO, which served as the treatment vehicle. The same volume of DMSO was added to matching untreated cultures as a vehicle control.
(§3) A telomerase-immortalized line of human corneal limbal epithelial (HCLE) cells was used for all experiments employing cell culture. […] Stratification was routinely evaluated using phase contrast microscopy; differentiation leading to glycocalyx barrier function was evaluated using the rose bengal penetration assay. […]
(§4) Vital dye staining of cells in culture was performed using sodium fluorescein (Sigma-Aldrich). […] Dye uptake was evaluated qualitatively by imaging. Images (excitation/emission=488/510 nm) were taken immediately after washing, so that staining could be evaluated before dye diffused. Fluorescein uptake by cultured cells was quantified using a plate reader and depicted in graphs as relative fluorescence units (RFU). Rose bengal uptake by cultured cells or eyes was quantified using a modification of a previously described method. […]

[2] = test system: HCLE monolayer cell cultures; assay: Vital dye staining assay (fluorescein), oxidative stress, monolayer cells; format: cell-based, human; details: 3 mM tBHP, 2 hours; Genistein 200 uM, Chlorpromazine 8 ug/mL, Dynasore 40 uM; FIG. 2B
From the text: as §1, with “Cells were incubated for 2 to 3 hours and mouse eyes were incubated for 2.5 hours before endpoint determination.” left out
as §3, §4

[3] = test system: ocular surface of ex vivo mouse eyes; assay: Vital dye staining assay, mouse eye organ culture under oxidative stress; details: for vital dye uptake once the damage was done: used after stress was applied; for dye uptake at the ocular surface, post-treatment: 10 mM tBHP first, FIG. 4B
From the text: as §1, §2
The University of Southern California's Institutional Animal Care and Use Committee approved the research protocol number 11412 for use of mice in this study. Research was conducted in adherence with the Association for Research in Vision and Ophthalmology (ARVO) Statement for the Use of Animals in Ophthalmic and Visual Research. Wild type C57B1/6J mice, 6-8 weeks of age, were purchased from Jackson Labs (Bar Harbor, Me.). Prior to use in an experiment, mice were housed in a pathogen-free barrier facility and kept at […], relative humidity 60%±10%, with alternating 12-hour light/dark cycles. To obtain eyes for organ culture, euthanasia was performed using compressed CO2 gas, according to the American Veterinary Medical Association Guidelines for the Euthanasia of Animals: 2013 Edition. […]
Vital dye staining of cells in culture was performed using sodium fluorescein (Sigma-Aldrich). […] Dye uptake was evaluated qualitatively by imaging. Images (excitation/emission=488/510 nm) were taken immediately after washing, so that staining could be evaluated before dye diffused. Fluorescein uptake by cultured cells was quantified using a plate reader and depicted in graphs as relative fluorescence units (RFU). Rose bengal uptake by cultured cells or eyes was quantified using a modification of a previously described method. After imaging, the stained cells or eyes were incubated in 100 uL of DMSO at room temperature for 1 hour, and the solution was recovered into the wells of a 96 well plate to read in a plate reader at 562 nm.

ocular surface barrier = details: mouse model, desiccating stress; cited from earlier work
HCLE monolayer cultures [4] = assay: MTT/WST-1 metabolic assays for cytotoxicity; format: cell-based, human; details: 10 mM tBHP, 2 hours; Dynasore 40 uM at the same time; FIG. 5A
From the text: as §1, with “Stressed cultures were compared to unstressed controls incubated similarly for the same time period. Cells were incubated for 2 to 3 hours and mouse eyes were incubated for 2.5 hours before endpoint determination.” left out
as §3

[5] = test system: MPS-treated monolayer cells; details: publication [61]; cited from earlier work
HCLE monolayer cultures [6] = assay: Endocytosis assay: uptake of Alexa Fluor 568-conjugated TF under oxidative stress; format: cell-based, human; details: 3 mM tBHP; co-treatment with Dynasore 40 uM; FIG. 2A
From the text: (§5) The purpose of this study was to investigate mechanisms of dye uptake relevant to ocular surface disease. We hypothesized that stimulation of plasma membrane remodeling by sublethal cell damage would result in vital dye uptake into endocytic repair vesicles. Oxidative stress has been implicated in ocular surface damage due to dry eye and many other ocular surface disorders, thus we chose this as the damaging stress for our study. An aqueous stock solution of tert-butyl hydroperoxide (tBHP) was diluted into the medium of human cell cultures or mouse eye organ cultures as we have previously described. […] These optimal concentrations were determined empirically in dose-response assessments as causing a high level of vital dye staining without killing cells. […]
as §3
Endocytosis was quantified by monitoring cell uptake of human Alexa Fluor 568-conjugated TF (serum transferrin; Thermo Fisher Scientific, Waltham, Mass.). […] Cells were then imaged with a Keyence BZ-X700 fluorescence microscope (excitation/emission=532/588 nm). Alexa Fluor 568-conjugated TF uptake was quantified by image J analysis.

LGALS3 = assay: Western blotting of LGALS3 in cell culture medium; format: cell-based, human; details: stratified cultures, 3 mM tBHP, 2 hours; Dynasore 40 uM; FIG. 6B
From the text: as §1, with “Stressed cultures were compared to unstressed controls incubated similarly for the same time period. Cells were incubated for 2 to 3 hours and mouse eyes were incubated for 2.5 hours before endpoint determination.” left out
as §3

HCLE monolayer cultures [7] = assay: Trypan blue exclusion assay; format: cell-based, human; details: 10 mM tBHP, 3 hours; Dynasore 40 uM at the same time; FIG. 5B
From the text: as §5, §3
Cells were stained with filtered 0.4% trypan blue dye (Thermo Fisher Scientific) for 4 minutes following 3 washes with PBS. The extent of staining was measured qualitatively by imaging under white light, and quantitatively using a plate reader at 590 nm.

cardiomyocyte = details: references [56-58]; cited from earlier work
HCLE stratified cultures [8] = assay: Lectin binding (fluorescein-conjugated jacalin); format: cell-based, human; details: 3 mM tBHP, 2 hours; Dynasore 40 uM; FIG. 6A
From the text: as §1, with “Stressed cultures were compared to unstressed controls incubated similarly for the same time period. Cells were incubated for 2 to 3 hours and mouse eyes were incubated for 2.5 hours before endpoint determination.” left out
as §3

Molecule: O=c1c(-c2ccc(O)cc2)coc2cc(O)cc(O)c12 [Genistein]
- oxidative stress-stimulated vital dye uptake in stratified and differentiated cell cultures (HCLE stratified cultures [1]): no effect on vital dye uptake
- stress-stimulated fluorescein dye uptake [2]: blocked

Molecule: CN(C)CCCN1c2ccccc2Sc2ccc(Cl)cc21 [Chlorpromazine, Chlorpromazine hydrochloride]
- oxidative stress-stimulated vital dye uptake in stratified and differentiated cell cultures (HCLE stratified cultures [1]): no effect on vital dye uptake
- stress-stimulated fluorescein dye uptake [2]: blocked

Molecule: O=C(N/N=C/c1cc(O)c(O)cc1O)c1cc2ccccc2cc1O [Dyngo-4a]
- oxidative stress-stimulated vital dye uptake in stratified and differentiated cell cultures (HCLE stratified cultures [1]): very effective inhibitor of vital dye uptake
- vital dye uptake once the damage was done [3]: no effect on vital dye uptake

Molecule: CLU: homeostatic protein clusterin, prominent at fluid-tissue interfaces; SEQ ID NO: 1 is the human isoform 2 preproprotein
- ocular surface barrier disruption (ocular surface barrier): prevents and ameliorates ocular surface barrier disruption

Molecule: O=C(N/N=C/c1ccc(O)c(O)c1)c1cc2ccccc2cc1O [Dynasore]
- oxidative stress-stimulated vital dye uptake in stratified and differentiated cell cultures (HCLE stratified cultures [1]): very effective inhibitor
- protection against oxidative stress-induced increase of MTT/WST-1 absorbance (HCLE monolayer cultures [4]): protective, in particular for the WST-1 assay
- uptake of fluorescein in MPS-treated cells [5]: inhibited uptake of fluorescein
- stress-stimulated TF uptake (endocytosis) (HCLE monolayer cultures [6]): blocked stress-stimulated TF uptake
- stress-stimulated fluorescein dye uptake [2]: also blocked
- oxidative stress-caused increase in LGALS3 in the cell culture medium (LGALS3): inhibited this increase
- protection against oxidative stress-induced trypan blue staining (HCLE monolayer cultures [7]): remarkably protective, essentially eliminating trypan blue staining
- cardiomyocyte apoptosis following oxidative stress (cardiomyocyte): protects cardiomyocyte against entering apoptosis following oxidative stress
- jacalin staining of cell surface mucin-type glycoconjugates (HCLE stratified cultures [8]): no effect
- dye uptake at the ocular surface, post-treatment ([3]; then Dynasore 40 uM for 15 or 30 minutes): dye uptake was not reduced
- dye uptake at the ocular surface, post-treatment ([3]; then Dynasore 80 uM for 15 or 30 minutes): dye uptake was not reduced
- dye uptake at the ocular surface, co-treatment ([3]; 10 mM tBHP, Dynasore 40 uM at the same time as stress, FIG. 4A): dye uptake was prevented
- vital dye uptake once the damage was done [3]: no effect on vital dye uptake

— patent publication US20190099468A1, “METHOD TO PROTECT AND SEAL THE OCULAR SURFACE” (UNIVERSITY OF SOUTHERN CALIFORNIA, priority 2017, published 2019)
